The source of these data is the NIST ThermoML archive (doi:10.1016/j.jct.2006.03.014).

The conditions of series [1]: 101 kPa, Liquid; for viscosity: Capillary tube (Ostwald / Ubbelohde) method; for mass density: Pycnometric method.
The nature of series [2]: xn = mol fraction of the nth substance listed. The following applies: 101 kPa, Liquid, x2 = 0; for viscosity: Capillary tube (Ostwald / Ubbelohde) method; for mass density: Pycnometric method.
The nature of series [3]: refractive index (Na D-line) (dimensionless). The following applies: 298.15 K; 101.33 kPa; Liquid; Standard Abbe refractometry.

Numbers after ± are expanded uncertainties.

Take `CC1OC(C)OC(C)O1` (stereo not given) [2,4,6-trimethyl-1,3,5-trioxane]: the figures for the viscosity in series [1] (298.15 K), in series [1] (303.15 K) and in series [1] (308.15 K) were 1.107 ± 0.015 mPa·s, 1.001 ± 0.014 mPa·s and 0.907 ± 0.013 mPa·s, respectively. The mass density – broadly, the mass of a sample divided by its volume – came to 988.4 ± 1.3 kg/m3 in series [1] (298.15 K), 982.6 ± 1.3 kg/m3 in series [1] (303.15 K) and 976.4 ± 1.4 kg/m3 in series [1] (308.15 K).

Consider `CCCCOC(C)=O` [butyl ethanoate] + CC1OC(C)OC(C)O1, for which the viscosity (commonly the resistance of a fluid to flow) came out at 0.685 ± 0.01 mPa·s in series [2] (298.15 K), 0.636 ± 0.01 mPa·s in series [2] (303.15 K) and 0.579 ± 0.009 mPa·s in series [2] (308.15 K). Also, the mass density in series [2] (298.15 K) is 876.4 ± 1.1 kg/m3; in series [2] (303.15 K), 871.3 ± 1.1 kg/m3; in series [2] (308.15 K), 866.2 ± 1.1 kg/m3.

On to `COC(C)=O` [methyl ethanoate], for which the viscosity in series [1] (298.15 K) was determined as 0.367 ± 0.008 mPa·s; in series [1] (303.15 K), 0.351 ± 0.007 mPa·s; in series [1] (308.15 K), 0.338 ± 0.007 mPa·s. Also, the results for the mass density in series [1] (298.15 K), in series [1] (303.15 K) and in series [1] (308.15 K) were 926.7 ± 1.3 kg/m3, 919.7 ± 1.2 kg/m3 and 916.2 ± 1 kg/m3, respectively. Also, the refractive index (in general, the speed of light in vacuum divided by its phase velocity in the sample) in series [3] is reported as 1.3585 ± 0.0009.

As to `CCOC(C)=O` [ethyl acetate], the viscosity in series [1] (298.15 K) is 0.43 ± 0.008 mPa·s; in series [1] (303.15 K), 0.401 ± 0.008 mPa·s; in series [1] (308.15 K) it was 0.387 ± 0.008 mPa·s. Moreover, the mass density in series [1] (298.15 K) was 893.8 ± 1.2 kg/m3; in series [1] (303.15 K), 887.6 ± 1.2 kg/m3; in series [1] (308.15 K), 881.2 ± 1.2 kg/m3. In series [3], the refractive index is reported as 1.37 ± 0.0009.

Regarding `COC(C)=O` [methyl ethanoate] + CC1OC(C)OC(C)O1, the viscosity in series [2] (298.15 K) amounted to 0.367 ± 0.008 mPa·s; in series [2] (303.15 K), 0.351 ± 0.007 mPa·s; in series [2] (308.15 K) it was 0.338 ± 0.007 mPa·s. The mass density turned out to be 926.7 ± 1.3 kg/m3 in series [2] (298.15 K), 919.7 ± 1.2 kg/m3 in series [2] (303.15 K) and 916.2 ± 1 kg/m3 in series [2] (308.15 K).

In the case of `CCCCOC(C)=O` [butyl ethanoate], the figures for the viscosity in series [1] (298.15 K), in series [1] (303.15 K) and in series [1] (308.15 K) were 0.685 ± 0.01 mPa·s, 0.636 ± 0.01 mPa·s and 0.579 ± 0.009 mPa·s, respectively. In addition, the mass density in series [1] (298.15 K) came out at 876.4 ± 1.1 kg/m3; in series [1] (303.15 K), 871.3 ± 1.1 kg/m3; in series [1] (308.15 K), 866.2 ± 1.1 kg/m3. For the same molecule, the refractive index in series [3] was determined as 1.3918 ± 0.0009.

For `CCOC(C)=O` [ethyl acetate] + CC1OC(C)OC(C)O1, the viscosity is listed as 0.43 ± 0.008 mPa·s in series [2] (298.15 K), 0.401 ± 0.008 mPa·s in series [2] (303.15 K) and 0.387 ± 0.008 mPa·s in series [2] (308.15 K). The mass density is given as 893.8 ± 1.2 kg/m3 in series [2] (298.15 K), 887.6 ± 1.2 kg/m3 in series [2] (303.15 K) and 881.2 ± 1.2 kg/m3 in series [2] (308.15 K).
